This is an account of results in publication PMC8062851, “2-Methoxyestradiol and its derivatives inhibit store-operated Ca^2+ entry in T cells: Identification of a new and potent inhibitor” (Biochimica et Biophysica Acta. Molecular Cell Research, 2021).

The subject of one assay is TMBP cells. The assay can be described thus: In vitro activation of TMBP cells by MBP, cytokine mRNA by qPCR. The assay is classed as cell-based, rat. The method, then:
Myelin basic protein (MBP)-reactive CD4^+ T cells retrovirally transduced to express enhanced GFP (TMBP cells) were established as previously reported. In brief, 6–8 week old female Lewis rats were immunized subcutaneously with 150 μl of emulsion consisting of equal parts of MBP (stock concentration: 1 mg/ml) and complete Freund's adjuvant containing heat-inactivated Mycobacterium tuberculosis extract (Difco; stock concentration: 2 mg/ml). Draining lymph nodes were harvested and passed through a cell strainer (40 μm) 9–10 days after immunization. The cell suspension was co-cultured with GP + E86 packaging cell lines producing replication-deficient retroviruses in the presence of 10 μg/ml MBP. Murine IL-2 was added to the culture for T cell expansion from day 2–4 after stimulation. The cell lines underwent 3–4 cycles of stimulation before being used for in vitro and in vivo experiments. […] Upon stimulation, they produced interferon-γ and IL-17.
In vitro activation assays were performed in 96-well plates. […]. TMBP cell activation on mRNA level was determined using qPCR and on surface protein level using surface marker staining and subsequent flow cytometry analysis.
Total RNA was isolated using the standard TRIzol method. cDNA was synthesized using the RevertAid First Strand cDNA Synthesis Kit (Thermo Fisher Scientific). Quantitative PCR (qPCR) was performed using the StepOnePlus™ Real-Time PCR System (Applied Biosystems), as previously described [[23], [24], [25]]. Rat TMBP cell data were obtained from three to four independent duplicate measurements. β-actin served as housekeeping gene. Human PBMC data were obtained from two independent healthy donors and duplicate measurements (representative data of one donor are shown). HPRT served as housekeeping gene. For all probes (TaqMan), a combination of 5′-FAM and 3′-TAMRA quencher was used as described.
For orientation: Real-time PCR tracks product formation cycle by cycle.

In the next assay the test system is SOCE in Jurkat T cells. The assay can be described thus: Inhibition during activated SOCE (thapsigargin or anti-CD3 OKT3, 1 mM extracellular Ca2+) in Jurkat T cells. It counts as cell-based, human. The following applies: for IC50: Homo sapiens, Jurkat, 1 mM extracellular Ca2+. The method, then: Jurkat T-lymphocytes, primary human CD4^+ T cells and H1299 cells were pelleted at 450 ×g for 5 min, rat TMBP at 300 ×g for 8 min at room temperature and were resuspended in 1 ml of either standard JMP medium (Jurkat, H1299 and human CD4^+ T cells) or standard DMEM based medium containing 10% fetal bovine serum (FBS) (v/v) (TMBP cells). Resting TMBP cells (day 5–7 after re-stimulation) after the second to fifth re-stimulation were thawed from liquid nitrogen 12 to 40 h prior to Fura2-loading. After pre-incubation for 5 min at 37 °C, cells were incubated with 4 μM Fura2-AM for 15 min at 37 °C. After addition of the dye, cells were kept in the dark. Afterwards, cells and the dye were diluted by addition of 4 ml standard medium and incubated for another 15 min. Cells were washed twice in Ca^2+ buffer (140 mM NaCl, 5 mM KCl, 1 mM MgSO4, 1 mM CaCl2, 1 mM NaH2PO4, 20 mM HEPES, 5.5 mM glucose; pH 7.4 (NaOH), sterile filtered) and were diluted to a concentration of 2*10^6 cells/ml. Subsequently, cells were kept at room temperature for 20 min for de-esterification before the start of the first measurement.
10^6 Jurkat T-lymphocytes, H1299 cells, TMBP cells or 4*10^6 primary human CD4^+ T cells were added into a 10 × 10 mm quartz glass cuvette (Hellma Analytics, Germany) that was placed into a fluorescence spectrophotometer (F-2710, Hitachi, Japan). In experiments using a Ca^2+ free/Ca^2+ re-addition protocol, cells were pelleted as described for Fura2 loading and Ca^2+ buffer was exchanged by 1 ml nominal Ca^2+ free buffer (140 mM NaCl, 5 mM KCl, 1 mM MgSO4, 1 mM NaH2PO4, 20 mM HEPES, 5.5 mM glucose; pH 7.4 (NaOH), sterile filtered) immediately before starting the measurement. The measurement was controlled by FL Solutions (Version 4.1, Hitachi High-Technologies Corporation). Fura2 was alternatively excited every 2 s at 340 ± 5 nm and 380 ± 5 nm, each 400 ms apart. Fluorescence intensity was measured at an emission wavelength of 495 ± 5 nm for both excitation wavelengths.
Finally, every measurement was calibrated using 0.1% (v/v) Triton X-100 to obtain a maximal ratio and 4 mM EGTA and 30 mM Tris to obtain a minimal ratio. […]
Besides the Ca^2+ free/Ca^2+ re-addition protocol, we also characterized the effect of STX564 in cells during activated SOCE in the presence of thapsigargin (TG, Fig. 2A,B) or upon stimulation via their TCR/CD3 complex (Fig. 2C). […]. […] Similarly, in Fig. 2C this effect of a partial or full recovery of SOCE was also observed, a few minutes after STX564 addition.

Where two headings read alike, the source gives them in different places.

Consider `CCc1cc2c(cc1OS(N)(=O)=O)CC[C@@H]1[C@@H]2CC[C@]2(C)[C@@H](CC#N)CC[C@@H]12` [STX564, 2-ethyl-3-sulfamoyloxy-17β-cyanomethylestra-1,3,5(10)-triene], for which, in the assay with TMBP cells (TMBP cells + MBP, 6 h, qPCR), the “concentration at which TCR/CD3-evoked pro-inflammatory cytokine expression was significantly reduced” value was at least 0.1 µM. Moreover, in the assay with TMBP cells (TMBP cells + MBP, 6 h, qPCR, STX564 vs Synta66), the “concentration at which interferon-γ expression was significantly antagonized” value is at least 0.1 µM. Also, the “fold higher antagonist potency over Synta66, pro-inflammatory cytokine expression” value with TMBP cells (rat effector TMBP cells, especially INF-γ expression) is “approx. 100 fold”. Further, the IC50 in the assay on SOCE in Jurkat T cells (read-out: IC50 of SOCE inhibition during active SOCE, Jurkat T cells stimulated by 1 μM thapsigargin (TG)) turned out to be 3000 nM; with SOCE in Jurkat T cells (read-out: IC50 of SOCE inhibition during active SOCE, Jurkat T cells stimulated by 1 μg/ml αCD3 (OKT3)), 2000 nM. The “extent of inhibition when added during activated SOCE” value in the assay with SOCE in Jurkat T cells (Jurkat T cells, TG or TCR/CD3 stimulation) was “only partial inhibition”.
